Laboratory results as given in article PMC10216478, “Development of a Non-Peptide Angiotensin II Type 1 Receptor Ligand by Structural Modification of Olmesartan as a Biased Agonist” (Biomedicines, 2023).
Numbering of substitutions follows the chain as printed.

Experiments:
AT1 wild-type receptor = molecular target: T1, AT1 wild-type receptor (Rattus norvegicus, UniProt P25095); assay: Immunoblotting of ERK 1/2 activation in COS7 cells overexpressing AT1 wild-type receptor; assay type: cell-based; details: for ERK1/2 activation: AT1 wild-type receptor, COS7 cells, 1 µM ligands or 0.1 µM Ang II, 10 min, n = 5, vs. (-); for Mode of action in terms of ERK1/2 activation: authors' classification from ERK1/2 activation
T1 construct: expressed in transfected cells; host or cells: COS7
T1 sequence (P25095 1-359): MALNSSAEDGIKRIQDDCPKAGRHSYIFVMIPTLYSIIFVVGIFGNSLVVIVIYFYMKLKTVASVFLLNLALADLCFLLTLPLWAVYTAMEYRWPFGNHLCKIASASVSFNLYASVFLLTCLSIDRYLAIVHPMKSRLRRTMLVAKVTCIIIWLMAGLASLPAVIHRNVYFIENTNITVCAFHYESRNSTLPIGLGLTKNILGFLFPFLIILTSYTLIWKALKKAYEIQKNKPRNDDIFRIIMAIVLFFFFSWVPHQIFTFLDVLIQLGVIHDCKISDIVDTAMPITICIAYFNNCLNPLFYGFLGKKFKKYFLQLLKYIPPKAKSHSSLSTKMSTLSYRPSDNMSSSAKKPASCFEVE
Description: The synthetic rat AT1 receptor gene, which was cloned in the shuttle expression vector pMT-2, was used for expression and mutagenesis, as described previously. […] In the experiments, cells were grown without a cell-growth supplement. To express the AT1 receptor protein, 10 µg of purified plasmid DNA per 10^7 cells was used in the transfection. Wild-type and mutated AT1 receptors were transiently transfected into cells using Lipofectamine 2000 liposomal reagent (Roche Applied Science, Penzberg, Germany). Cells were plated and grown and were 70–90% confluent at the time of transfection. We incubated plasmid DNA (10 µg)–lipid (10 µL) complexes for 5 min at room temperature and added and incubated the complexes with cells for 24 h. We then analyzed the parameters in transfected cells. […] Transfected cells that had been cultured for 48–72 h were harvested. Cell membranes were prepared using the nitrogen Parr bomb disruption or freeze–thaw methods.
In in vitro studies, ERK 1/2 activation by 1 µM ligands or 0.1 µM Ang II incubated for 10 min was measured using COS7 cells that overexpressed AT1 wild-type and mutant receptors. ERK activity was measured in cells maintained for 18 h in DMEM containing 0.1% serum. At the end of the stimulation, the culture medium was removed by aspiration, the cells were washed with ice-cold phosphate-buffered saline, and the dishes were frozen in liquid nitrogen. The cells were scraped using a scraper after melting, and the scraped cells were transferred to a tube. We homogenized the cells in lysis buffer plus protease inhibitors and determined the protein concentration using the bicinchoninic acid method. […] We fractionated total proteins using sodium dodecyl sulfate polyacrylamide gel electrophoresis; we then transferred the proteins to a Hybond nitrocellulose membrane and blocked the blotted membranes with 10% bovine serum albumin in tris-buffered saline buffer (50 mM Tris–HCl pH 7.6, 150 mM NaCl) for 1 h at room temperature. […] An enhanced chemiluminescent substrate system (Amersham, Buckinghamshire, UK) was used. The signal was independently quantified by digital image analysis (ImageJ, National Institutes of Health, Bethesda, MD, USA).

AT1 Y292A receptor = molecular target: T2, AT1 Y292A receptor (Rattus norvegicus, UniProt P25095, Y292A); assay: Competition binding study, 125I-[Sar1,Ile8]Ang II, AT1 Y292A receptor; details: competition with 125I-[Sar1,Ile8]Ang II, n = 3, mean ± standard error, read-out: Binding affinity (Kd)
T2 construct: expressed in transfected cells; host or cells: COS7
T2 sequence (P25095 1-359 Y292A): T1 sequence (P25095 1-359) with Y292A
Description: We mutated four amino acids in transmembrane (TM) III, VI, and VII in the AT1 receptor (L112A, Q257A, Y292A, and N295A receptors). We determined the mutation sites of the AT1 receptor according to ARB, which produced olmesartan derivatives with different interactions and functions toward the AT1 receptor, as previously reported by Zhang et al., since the additional 4-hydroxybenzyl groups of R781253 and R794847 were predicted to extend to a sub-pocket on the bottom of the AT1 receptor ligand-binding pocket consisting of Leu^112 and Gln^257. In addition, since the biased ligand TRV027 induced changes near the NPxxY motif in TM domain 7 that are related to receptor activation, Tyr^292 and Asn^295 in the AT1 receptor were mutated.
The synthetic rat AT1 receptor gene, which was cloned in the shuttle expression vector pMT-2, was used for expression and mutagenesis, as described previously. COS7 cells (No. CRL-1651, ATCC, Manassas, VA, USA) were cultured in 10% fetal bovine serum (FBS) and penicillin- and streptomycin-supplemented Dulbecco’s modified Eagle’s essential medium (PS-DMEM) in 5% CO2 at 37 °C. In the experiments, cells were grown without a cell-growth supplement. To express the AT1 receptor protein, 10 µg of purified plasmid DNA per 10^7 cells was used in the transfection. Wild-type and mutated AT1 receptors were transiently transfected into cells using Lipofectamine 2000 liposomal reagent (Roche Applied Science, Penzberg, Germany). Cells were plated and grown and were 70–90% confluent at the time of transfection. We incubated plasmid DNA (10 µg)–lipid (10 µL) complexes for 5 min at room temperature and added and incubated the complexes with cells for 24 h. We then analyzed the parameters in transfected cells. Cell viability was >95% according to trypan blue exclusion analysis in the control experiments. Transfected cells that had been cultured for 48–72 h were harvested. Cell membranes were prepared using the nitrogen Parr bomb disruption or freeze–thaw methods.
The Kd (nM) values of receptor binding were determined with ^125I-[Sar^1, Ile^8]AngII-binding experiments under equilibrium conditions. Binding kinetics were determined following the methods described in the literature. We carried out binding by using ^125I-[Sar^1, Ile^8] AngII (2200 Ci/mmol) and an increasing concentration (10^−11–10^−5 M) of each unlabeled compound. Nonspecific binding of ^125I-[Sar^1, Ile^8] Ang II was determined in the presence of a high concentration (10^−6 M) of unlabeled [Sar^1, Ile^8]. Next, the incubation mixture was separated by vacuum filtration through Whatman GF/C glass filters (Disposable Filter Funnels Grade GF/C, GE Healthcare), and presoaked with 0.1% polyethylenimine. The filter was washed with 3 mL of ice-cold stop buffer (25 mM Tris–HCl, pH 7.4, 1 mM MgCl2). The radioactivity trapped on the filters was quantified using an automatic γ-counter. The percentage (%) of specific binding of ^125I-[Sar^1, Ile^8]Ang II was calculated using the following formula: 100 × (% total binding of ^125I-[Sar^1, Ile^8]Ang II—nonspecific binding of ^125I-[Sar^1, Ile^8]Ang II)/(% total binding of ^125I-[Sar^1, Ile^8]Ang II).

CCCc1nc(C(C)(C)O)c(C(N)=O)n1Cc1ccc(-c2cc(Cc3ccc(O)cc3)ccc2-c2nnn[nH]2)cc1 [R794847]
ERK1/2 activation (AT1 wild-type receptor): activated ERK1/2
Mode of action in terms of ERK1/2 activation (AT1 wild-type receptor): agonists in terms of ERK1/2 activation
Kd (AT1 Y292A receptor): 30 ± 8 nM

CCCc1nc(C(C)(C)O)c(C(=O)O)n1Cc1ccc(-c2cc(Cc3ccc(O)cc3)ccc2-c2nnn[nH]2)cc1 [R781253]
ERK1/2 activation (AT1 wild-type receptor): activated ERK1/2
Mode of action in terms of ERK1/2 activation (AT1 wild-type receptor): agonists in terms of ERK1/2 activation
Kd (AT1 Y292A receptor): 95 ± 7 nM

CCCc1nc(C(C)(C)O)c(C(N)=O)n1Cc1ccc(-c2ccccc2-c2nnn[nH]2)cc1 [R239470]
ERK1/2 activation (AT1 wild-type receptor): but not R239470, activated ERK1/2
Kd (AT1 Y292A receptor): 6.3 ± 3.8 nM

CCCc1nc(C(C)(C)O)c(C(=O)O)n1Cc1ccc(-c2ccccc2-c2nnn[nH]2)cc1 [Olmesartan, olmesartan]
ERK1/2 activation (AT1 wild-type receptor): did not change ERK1/2 activation
Kd (AT1 Y292A receptor): 47 ± 15 nM
